Assay results reported in patent US20260294946A1, “METHOD TO REDUCE FEED CONVERSION RATIO IN A FARMED ANIMAL” (Inbiose N.V., priority 2023, published 2026).

Legend:
Type in all cases: in vivo
[1] = Trial in piglets: body weight, growth, feed intake and feed conversion (pre-weaning, 22 days)
Procedure: The in vivo experiment was carried out at the commercial pig farm “Degroote Luc” (Bissegem, Belgium).
The experimental design had two treatments: • “Ti” serves as control, i.e., a placebo (water) was drenched during the first 4 days of life, and subsequently a commercial milk replacer as a liquid and creep feed was offered until weaning, • “T2,” a […] solution of 2′FL (it is referred to Example 1) in water was drenched during the first 4 days of life, and subsequently a commercial milk replacer supplemented with 2′FL (warm water was added to 250 g of milk powder to reach 25.000 (w/v)) and creep feed supplemented with 2′FL (10% w/w 2′FL) was offered until weaning. The composition of milk replacer and creep feed are detailed in Table 4.
Within 6 hours after birth of all piglets within a litter, piglets were tagged, weighed and ranked according to live weight. This was d0 of the study. Then, the first drenching was given, i.e., the heaviest piglet in the pen receives Ti, the next piglet T2 and so forth, until 12 piglets of that litter were drenched. In the next litter, the order of treatment application was alternated. This practice was done in 16 litters, and drenching was repeated on d1, d2 and d3. At the d4, […] were allocated to 16 pens with 6 piglets each, in the nursery unit. Ti was applied in 8 pens, and T2 was offered in 8 remaining pens. Piglets were allocated to pens according to litter of origin (from each of the 16 litters; 6 vital, normal to heavy weight piglets, body weight ≥1.7 kg, were taken and half of the piglets were allocated to a pen from T1—those receiving T1 in the first 3 days of life, and others to a pen from T2—those receiving T2 in the first 3 days of life), and to body weight and sex. Piglets were offered the liquid milk replacer through a cup connected to a mixing-tubing system and had free access to milk at all times. Milk intake was accurately measured at pen level. From d14 on, in addition, piglets were offered a creep feed (solid feed in feeder pan). Piglets were weighed at d0, d4, d14 and d22 (day of weaning).
Data was collected with respect to piglet performance (body weight, average daily gain (ADG), average daily feed intake and milk replacer for periods d0-4, d4-14, d14-22, d4-22, d0-22, total creep feed intake for period d14-22 and feed conversion for all periods.
Data were analyzed using appropriate linear mixed model with treatment as fixed effect (T1 vs. T2) and litter as random effect, and body weight at d0 as co-variate if P<0.05. Piglet was used as experimental unit for growth data, whereas pen was the experimental unit for other records.

Bacteroides coprophilus = experiment: Fecal microbiota of calves, shotgun metagenomics; conditions: T2 (W 9), versus placebo calves, score = −log 10(pvalue)*sign(coef)
Procedure: (§1) Stools were collected directly from recta of six calves in one selected pen upon rectal inducing at day 29 (W5) and day 57 (W9). The fecal samples (approximately 1 g) were immediately snap frozen using isopropanol-dried ice bath for 1 minute before they were transferred onto dried ice for transportation to a long-term storage at −80° C.
(§2) Total fecal DNA was extracted from 200 mg feces while total upper respiratory tract microbial DNA were extracted from 1 ml DNA shield reagent containing the nasal pharyngeal swab. ZymoBIOMICS™ DNA miniprep kit (Zymo Research) in combination with a FASTPREP® 24 device was used to extract and purify the microbial DNA as instructed by the manufacturer. Purified total DNA were eluted in 100 μl and were quickly checked for the concentration and quality using Nanodrop (Implen NANOPHOTOMETER®) before storage at −20° C.
(§3) Total DNA were submitted to Eurofins (GATC, Germany) to perform metagenomics using their INVIEW metagenome platform. Briefly, total DNA were first fragmented, then ligated with adapter for library preparation. The sequencing was done using Illumina paired end sequencing technology (2×150 bp), guaranteed for 20 million read pairs (40 million reads). Reads were quality-checked with fastqc (bioinformatics.babraham.ac. uk/projects/fastqc/) and trimmed with Trimmomatic (Bolger et al., 2014, Bioinformatics, 30(15): p. 2114-2120; usadellab.org/cms/?page=trimmomatic). Bovine reads were removed by mapping to the cow reference database Bos_taurus_UMD_3.1.1 using BMTagger (bioconda.github.io/recipes/bmtagger/README.html). Profiling of the taxonomic composition and the functional potential of microbial communities was done using Metaphlan (Beghini et al., 2021, Elife 10: e65088; /huttenhower.sph.harvard.edu/humann/).
(§4) Microbiome data was normalized in cpm (counts per million).
(§5) The treatment effect of MMOs in the microbiome data was evaluated per timepoint with Maaslin2 (Mallick et al., 2021, PLoS Computational Biology 17(11): e1009442) using AST transformation and adding compartment as fixed effect. For visualization in the tables a score was calculated equal to −log 10(pvalue)*sign(coef). Spearman correlation was used to evaluate the relation between microbiome and FCR using the cor.test function in the stats package in R.

Atopobium deltae = experiment: Fecal microbiota of calves, shotgun metagenomics; conditions: T1 (W 5), versus placebo calves, score = −log 10(pvalue)*sign(coef)
Procedure: as §1, §2, §3, §4, §5

Ruminococcus bromii = experiment: Fecal microbiota of calves, shotgun metagenomics; conditions: T2 (W 9), versus placebo calves, score = −log 10(pvalue)*sign(coef)
Procedure: as §1, §2, §3, §4, §5

Eubacterium rectale = experiment: Fecal microbiota of calves, shotgun metagenomics; conditions: T1 (W 5), versus placebo calves, score = −log 10(pvalue)*sign(coef)
Procedure: as §1, §2, §3, §4, §5

Prevotella copri = experiment: Fecal microbiota of calves, shotgun metagenomics; conditions: T1 (W 5), versus placebo calves, score = −log 10(pvalue)*sign(coef)
Procedure: as §1, §2, §3, §4, §5

[2] = tested on: Bacteroides pectinophilus; experiment: Fecal microbiota of calves, shotgun metagenomics; conditions: T2 (W 9), versus placebo calves, score = −log 10(pvalue)*sign(coef)
Procedure: as §1, §2, §3, §4, §5

With 2′-fucosyllactose [2′FL] the “body weight, ADG, milk intake, and creep feed intake versus placebo” value ([1]; 22 days of pre-weaning phase) was “no significant differences”, the FCR versus placebo ([1]; 22 days of pre-weaning phase, trend) was “there is a trend that the FCR is reduced” and the Body weight ([1]; d 0, P=0.839 vs placebo) was 1536 g. For the same substance, the “ADG (average daily gain)” value ([1]; d 0-4, P=0.363 vs placebo) was 139 g/day, the “ADG (average daily gain)” value ([1]; d 0-22, P=0.297 vs placebo) was 185 g/day and the Body weight ([1]; d 4, P=0.369 vs placebo) was 2087 g. For the same substance, the “ADFI milk (average daily feed intake)” value ([1]; d 4-14, P=0.555 vs placebo) was 149 g DM/d, the “FCR (milk)” value ([1]; d 4-14, P=0.835 vs placebo) was 1.03 g milk DM/g and the “ADG (average daily gain)” value ([1]; d 4-14, P=0.950 vs placebo) was 150 g/day. For the same substance, the “ADG (average daily gain)” value ([1]; d 4-22, P=0.253 vs placebo) was 196 g/day, the “FCR (milk)” value ([1]; d 4-22, P=0.268 vs placebo) was 1.04 g milk DM/g and the “ADFI milk (average daily feed intake)” value ([1]; d 4-22, P=0.834 vs placebo) was 202 g DM/d. The Body weight ([1]; d 14, P=0.946 vs placebo) was 3524 g, the “FCR (milk + creep feed)” value ([1]; d 14-22, P=0.038 vs placebo) was 1.18 (g milk DM + g creep feed DM)/ and the “FCR (milk)” value ([1]; d 14-22, P=0.055 vs placebo) was 1.09 g milk DM/g. For the same substance, the “ADG (average daily gain)” value ([1]; d 14-22, P=0.134 vs placebo) was 250 g/day, the “ADFI creep feed (average daily feed intake)” value ([1]; d 14-22, P=0.304 vs placebo) was 23.8 g DM/d and the “ADFI milk (average daily feed intake)” value ([1]; d 14-22, P=0.885 vs placebo) was 270 g DM/d. The Body weight ([1]; d 22, P=0.306 vs placebo) was 5524 g, the FCR versus placebo ([1]; day 14 to 22, milk and creep feed (P=0.038)) was “even lower” and the FCR versus placebo ([1]; day 14 to 22, milk intake (P=0.055)) was “lower”. The “Significant change in counts per million (cpm) of bacteria species (score)” value (shortened to “Significant change in counts per million”) (Bacteroides coprophilus) was −1.56, the “Significant change in counts per million” value (Atopobium deltae) was −1.44 and the “Significant change in counts per million” value (Ruminococcus bromii) was 1.65. The “Significant change in counts per million” value (Eubacterium rectale) was 1.35, the “Significant change in counts per million” value (Prevotella copri) was −1.68 and the “Significant change in counts per million” value [2] was 1.35.
